What was measured:
[1] = target: alkaline phosphatase-IgG (goat anti-rabbit) conjugate (Bos taurus, UniProt P19111); test: Enzyme kinetics of alkaline phosphatase-IgG conjugate with varying AMP concentrations, double reciprocal plot; assay type: biochemical, calf; conditions: 10 mM diethanolamine buffer pH 9.8, 37° C., 30 minutes, conjugate 2×10^-8 mg/ml; double reciprocal plot (FIG. 4b)
Method: To determine the enzyme kinetics of alkaline phosphatase-IgG (goat anti-rabbit) conjugate, varying concentrations of adenosine-5'-monophosphate were added to a 10^6 dilution of the enzyme-IgG conjugate. […] Alkaline phosphatase conjugate (2×10^-8 milligrams per milliliter) was added to 10 mM diethanolamine buffer having a pH of 9.8, containing various concentrations of AMP. The reaction mixtures were incubated at 37° C. for 30 minutes. The tritium-labelled adenosine released was determined by column chromatography utilizing DEAE Sephadex by applying an 0.05 milliliter aliquot of the reaction mixture to a column packed with 1.5 milliliters DEAE Sephadex A-25 followed by elutation with a total of 4.5 milliliters of 0.01 M diethanolamine buffer with a pH of 9.8, containing 0.1 mM unlabelled adenosine in two fractions. 20 ml of liquid scintillator, Aquasol®, was added to each fraction and the tritium-labelled adenosine was measured in a liquid scintillation counter. The Km was calculated to be approximately 4 mM by a double reciprocal plot of the Michalis-Menton equation which is shown in FIG. 4b. […] The counting of the actual scintillation counter was adjusted in accordance with standard techniques to yield DPM, disintegrations per minute. Varying concentrations of diethanolomine buffer and MgCl2 were tested. […]

[2] = target: alkaline phosphatase-IgG conjugate (Bos taurus, UniProt P19111); test: Effect of reaction products on the alkaline phosphatase-IgG conjugate assay (tritium-AMP hydrolysis); assay type: biochemical, calf; conditions: 100 picamole tritium-AMP, 10 mM buffer pH 9.0, 37° C.
Method: Triplicates of the assay mixture containing 100 picamole of tritium-AMP and 10^-8 milligrams of enzyme conjugate in 0.1 milliliter of 10 mM buffer with a pH of 9.0 were incubated at 37° C. from 0 to 48 hours. Aliquots of 50 microliters of the reaction mixtures were withdrawn for determination of enzyme activity at 0.5, 1.5, 4.5, 24 and 48 hours. The enzyme activity was nearly linear for 90 minutes with approximately 2% of the tritium-AMP hydrolyzed to tritium-adenosine and phosphate. At 24 and 48 hours, the enzyme reaction became slower. Since the tritium-AMP radioindicator was still in excess, the reduction of enzyme activity could be secondary to enzyme degradation and/or product inhibition. To determine the effects of reaction products on the assay, either phosphate (2 or 20 picamoles) or adenosine (20 picamoles) was added to the assay mixtures. 2 and 20 picamole phosphate inhibited alkaline phosphatase activity by 8% and 90% respectively. […] The variation in the triplicate samples was small. For reaction times of less than 5 hours, the variation in either duplicate or triplicate samples was less than 10% of the mean value.

alkaline phosphatase-IgG conjugate, sequence (P19111 20-506 limits assumed): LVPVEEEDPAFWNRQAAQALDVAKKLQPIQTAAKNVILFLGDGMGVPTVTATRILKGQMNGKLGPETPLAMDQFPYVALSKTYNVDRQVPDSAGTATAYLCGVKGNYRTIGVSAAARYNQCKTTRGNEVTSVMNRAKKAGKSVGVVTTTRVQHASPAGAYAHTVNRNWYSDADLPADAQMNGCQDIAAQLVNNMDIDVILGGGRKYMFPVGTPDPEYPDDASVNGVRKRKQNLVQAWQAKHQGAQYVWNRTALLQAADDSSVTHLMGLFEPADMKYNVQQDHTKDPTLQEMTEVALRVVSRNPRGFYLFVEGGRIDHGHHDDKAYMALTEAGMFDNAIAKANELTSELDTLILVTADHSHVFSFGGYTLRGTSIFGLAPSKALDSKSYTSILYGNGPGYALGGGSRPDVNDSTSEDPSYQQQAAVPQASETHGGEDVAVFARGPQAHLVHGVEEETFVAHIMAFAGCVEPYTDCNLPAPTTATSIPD
alkaline phosphatase-IgG (goat anti-rabbit) conjugate, sequence (P19111 20-506 limits assumed): as above

## Nc1ncnc2c1ncn2[C@@H]1O[C@H](COP(=O)(O)O)[C@@H](O)[C@H]1O [adenosine-5'-monophosphate]
[1]
  Km: ~4 mM

## Nc1ncnc2c1ncn2[C@@H]1O[C@H](CO)[C@@H](O)[C@H]1O [adenosine]
[2]; 20 picamole adenosine added to 0.1 ml assay mixture
  effect on the activity of the phosphatase: no detectable effect

## phosphate
[2]; 2 picamole phosphate added to 0.1 ml assay mixture
  inhibition of alkaline phosphatase activity: 8%
[2]; 20 picamole phosphate added to 0.1 ml assay mixture
  inhibition of alkaline phosphatase activity: 90%
